Measured values: patent publication US9902938B2, “Method for inducing exocrine pancreatic cells” (Kyoto University, priority 2012, dated 2018)

What was measured:
[1] = test system: PDX1-positive pancreatic precursor cells; assay: Induction of exocrine pancreatic cells from human ES cell-derived pancreatic precursor cells (Example 1, anti-amylase immunostaining); type: cell-based; conditions: human ES cells (KhES3)
Description: Human ES cells (KhES3) received from Kyoto University (Kyoto, Japan) were cultured by a conventional method (Mori H, et al., Biochem Biophys Res Commun. 2006, 345, 926-932). ES cells were cultured on 6-cm dishes to 80%-90% confluency, and then 1 mL of Accutase™ was added to disperse ES cells into single cells.
ES cells dispersed into single cells were induced to differentiate into exocrine pancreatic cells according to protocols shown in FIG. 1. Specifically, the following 5 steps were carried out.
(§1) (Stage 1) ES cells were suspended in a RPMI1640 medium containing 2% B27 and Penicillin/Streptomycin, and then seeded in a matrigel-coated 24-well plate at 250,000/well. 100 ng/ml, Activin A and 1 μM CHIR99021 were added to adjust the amount of the medium to be 0.5 mL/well, and then cells were cultured for 6 days.
(Stage 2-1) The medium was substituted with DMEM containing 50 ng/ml FGF10, 0.25 μM KAAD (3-Keto-N-(aminoethyl-aminocaproyl-dihydro-cinnamoyl))-cyclopamine, 1% L-Glutamin, 2% B27, 50 mU/L Penicillin and 50 μg/L Streptomycin, and then cells were cultured for 1 day.
(Stage 2-2) The medium was substituted with DMEM containing 2 μM retinoic acid, 50 ng/ml FGF10, 0.25 μM KAAD-cyclopamine, 1% L-Glutamin, 2% B27, 50 mU/L Penicillin and 50 μg/L Streptomycin, and then cells were cultured for 2 days.
(Stage 2-3) The medium was substituted with DMEM containing 50 ng/ml FGF10, 300 nM (−)-indolactam V (ILV), 1% L-Glutamin, 2% B27, 50 mU/L Penicillin and 50 μg/L Streptomycin, and then cells were cultured for 4 days.
(Stage 3) The medium was substituted with DMEM containing 1 μM CHAP108 (formula 10), 300 nM ILV, 1% L-Glutamin, 2% B27, 50 mU/L Penicillin and 50 μg/L. Streptomycin, and then cells were cultured for 4 days or 8 days.
The result obtained by culturing cells for 12 days in Stage 3 with the use of the ligand protein for a Notch signal, 0.5 mg/ml hDLL4 or 0.5 mg/ml hJAG1, instead of CHAP108 was compared with the result obtained by culturing cells for 4 days in Stage 3 with the use of CHAP108. […]

[2] = test system: PDX1-positive pancreatic precursor cells; assay: Induction of exocrine pancreatic cells by modified protocol (Example 2, immunostaining with anti-Amylase); type: cell-based; conditions: Stage 3 culture 2 days, 1 μM CHAP108 with 300 nM ILV; human ES cells (KhES3); DMSO negative control 2.8%
Description: ES cells (KhES3) dispersed into single cells were induced to differentiate into exocrine pancreatic cells according to modified protocols shown in FIG. 1. Specifically, the following 5 steps were carried out.
as §1, with “100 ng/mL” for “100 ng/ml,”, “for 4” for “for 6”
(Stage 2-1) The medium was substituted with DMEM containing 50 ng/ml […], 0.25 μM KAAD (3-Keto-N-(aminoethyl-aminocaproyl-dihydro-cinnamoyl))-cyclopamine, 1% L-Glutamin, 2% B27, 50 mU/L Penicillin and 50 μg/L Streptomycin, and then cells were cultured for 1 day.
(Stage 2-2) The medium was substituted with DMEM containing 2 μM retinoic acid, 50 ng/ml FGF10, 0.25 μM KAAD-cyclopamine, 1% L-Glutamin, 2% B27, 50 mU/L Penicillin and […] Streptomycin, and then cells were cultured for 2 days.
(Stage 2-3) The medium was substituted with DMEM containing 50 ng/ml FGF10, 300 nM (−)-indolactam V (ILV), 1% L-Glutamin, 2% B27, 50 mU/L Penicillin and 50 μg/L Streptomycin, and then cells were cultured for 2 days. […]

[3] = Stage 3 culture 12 days, 0.5 mg/ml ligand protein instead of CHAP108

Compound: CCC(C)C1NC(=O)C(Cc2ccc(OC)cc2)NC(=O)C(CCCCCN(O)C=O)NC(=O)C2CCCCN2C1=O (stereo not shown) [CHAP108]
- efficiency for inducing exocrine pancreatic cells ([1]; Stage 3 culture 4 days, 1 μM CHAP108 with 300 nM ILV): 21.4%
- Amylase positive rate [2]: 56.3%

Compound: hDLL4: ligand protein for a Notch signal receptor, member of the Delta-like family
- efficiency for inducing exocrine pancreatic cells [1, 3]: 28.8%

Compound: hJAG1: ligand protein for a Notch signal receptor, member of the Jagged family
- efficiency for inducing exocrine pancreatic cells [1, 3]: 27.0%
